Measurements as given in ChEMBL document CHEMBL4118279, “1,3-Di(quinolin-2-yl)guanidine binds to GGCCCC hexanucleotide repeat DNA in C9ORF72” (Bioorg Med Chem Lett, 2018).
Calls of active or inactive are those of the source. The rule behind the calls is not given here.

Legend:
[1] = Binding affinity to GGCCCC/GGCCCC motif-containing duplex DNA (unknown origin) assessed as formation of CD bands at 20 uM at 310 to 345 nm by CD spectrometry
[2] = Binding affinity to GGGGCC/GGGGCC motif-containing duplex DNA (unknown origin) assessed as change in melting temperature at 20 uM by UV-spectrophotometric method
[3] = Binding affinity to GGAACC/GGAACC motif-containing duplex DNA (unknown origin) assessed as change in melting temperature at 20 uM by UV-spectrophotometric method
[4] = Binding affinity to GGCCCC/GGCCCC motif-containing duplex DNA (unknown origin) assessed as change in melting temperature at 20 uM by UV-spectrophotometric method
[5] = Binding affinity to GGTTCC/GGTTCC motif-containing duplex DNA (unknown origin) assessed as change in melting temperature at 20 uM by UV-spectrophotometric method
[6] = Binding affinity to GGCCCC/GGGGCC motif-containing duplex DNA (unknown origin) assessed as change in melting temperature at 20 uM by UV-spectrophotometric method
[7] = Binding affinity to GGTCCC/GGCTCC motif-containing duplex DNA (unknown origin) assessed as change in melting temperature at 20 uM by UV-spectrophotometric method
[8] = Binding affinity to GGCCC/GGCCC motif-containing duplex DNA (unknown origin) assessed as change in melting temperature at 20 uM by UV-spectrophotometric method
[9] = Binding affinity to GGTTCC/GGCCCC motif-containing duplex DNA (unknown origin) assessed as change in melting temperature at 20 uM by UV-spectrophotometric method
[10] = Binding affinity to (GGCCCC)5 motif-containing duplex DNA (unknown origin) at 80 uM by ESI-TOF-MS analysis
[11] = Binding affinity to GGCCCC/GGCCCC motif-containing duplex DNA (unknown origin) at 40 uM by ESI-TOF-MS analysis
[12] = Binding affinity to GGCCCC/GGGGCC motif-containing duplex DNA (unknown origin) at 40 uM by ESI-TOF-MS analysis
[13] = Binding affinity to GGTCCC/GGTCCC motif-containing duplex DNA (unknown origin) assessed as formation of CD bands at 20 uM at 310 to 345 nm by CD spectrometry
[14] = Binding affinity to GGCCCC/GGCCCC motif-containing duplex DNA (unknown origin) at 80 uM by ESI-TOF-MS analysis
[15] = Binding affinity to GGCTCC/GGCCCC motif-containing duplex DNA (unknown origin) assessed as change in melting temperature at 20 uM by UV-spectrophotometric method
[16] = Binding affinity to GGTCCC/GGTCCC motif-containing duplex DNA (unknown origin) assessed as change in melting temperature at 20 uM by UV-spectrophotometric method
[17] = Binding affinity to GGTCCC/GGCCCC motif-containing duplex DNA (unknown origin) assessed as change in melting temperature at 20 uM by UV-spectrophotometric method
[18] = Binding affinity to GGCTCC/GGCCCC motif-containing duplex DNA (unknown origin) assessed as formation of CD bands at 20 uM at 310 to 345 nm by CD spectrometry
[19] = Binding affinity to (GGCCCC)9 motif-containing duplex DNA (unknown origin) assessed as melting temperature at 20 uM by UV-spectrophotometric method
[20] = Binding affinity to GGTCCC/GGCCCC motif-containing duplex DNA (unknown origin) assessed as formation of CD bands at 20 uM at 300 to 345 nm by CD spectrometry
[21] = Binding affinity to (GGCCCC)9 motif-containing duplex DNA (unknown origin) assessed as formation of CD bands at 20 uM at 245 to 282 nm by CD spectrometry
[22] = Binding affinity to GGCTCC/GGCTCC motif-containing duplex DNA (unknown origin) assessed as change in melting temperature at 20 uM by UV-spectrophotometric method

N=C(N)Nc1ccc2ccccc2n1
Activity [1]: Active
ΔTm [2]: -0.7 °C
ΔTm [3]: -0.5 °C
ΔTm [4]: 3.4 °C
ΔTm [5]: -1.3 °C
ΔTm [6]: -2.8 °C

N=C(Nc1ccc2ccccc2n1)Nc1ccc2ccccc2n1
ΔTm [7]: 8.9 °C
ΔTm [8]: 7.8 °C
Activity [1]: Active
ΔTm [2]: 0.7 °C
ΔTm [9]: 8.6 °C
Activity [10]: Active
Activity [11]: Active
ΔTm [3]: 2.1 °C
Activity [12]: inactive
Activity [13]: inactive
Activity [14]: Active
ΔTm [15]: 11.2 °C
ΔTm [4]: 19.6 °C
ΔTm [16]: 11.5 °C
ΔTm [17]: 14.4 °C
Activity [18]: inactive
ΔTm [5]: -0.1 °C
ΔTm [6]: -1 °C
Tm [19]: 67.8 °C
Activity [20]: Active
Activity [21]: Active
ΔTm [22]: 8.3 °C
